Source: US11166924B2, “N-methyl-d-aspartate receptor allosteric modulators and methods for their use” (Qingdao Primedicine Pharmaceutical Company, Ltd., priority 2016, dated 2021)

Columns and labels:
GluN1/GluN2A NMDARs = molecular target: T1, GluN1/GluN2A NMDARs (Rattus norvegicus, UniProt P35439+Q00959); assay: Whole-cell patch clamp recordings in HEK293 cells transfected with GluN1/GluN2A; format: cell-based; conditions: for activation at 100 µM / activation at 50 µM: HEK293, Table 2, read-out: Normalized Potentiation GluN1/GluN2A; for Normalized Potentiation / EC50: Table 1; for Normalized Potentiation: positive modulation of GluN1/GluN2A NMDARs, concentration not given; for EC50: potentiation, read-out: EC50; for activation at 50 µM: 50 μM (footnote *)
T1 construct: expressed in transfected cells; host or cells: HEK293
Procedure: Cells were transfected with a combination of pcDNA3-CMV expression vectors, each of which expressed one of the rat recombinant (GluN2AWT, GluN1WT, GluN2BWT) subunits. The sequences of all plasmids were confirmed by automated DNA sequencing. Human Embryonic Kidney 293 (HEK293 cells) were cultured in Dulbecco's Modified Eagle's Medium (DMEM) (Invitrogen) supplemented with 10% fetal bovine serum (FBS). When HEK293 cells achieved 90% confluence, plasmids of either GluN1 & GluN2A or GluN1 & GluN2B were co-transfected into the cells using Lipofectamine 2000 (Invitrogen, 11668019) according to manufacturer's instructions. HEK293 cells were then maintained in the 37° C. incubator with […] and 5% CO2 for 48 hrs before being used in experiments. The transfection ratios for the NMDAR subunit combinations were all 1:1 (GluN1/GluN2A or GluN1/GluN2B).
Whole cell patch-clamp recordings were performed under voltage-clamp mode using an Axopatch 200B or 1D patch-clamp amplifier (Molecular Devices). Whole-cell currents were recorded at a holding potential of −60 mV unless indicated elsewhere, and signals were filtered at 2 kHz, digitized at 10 kHz (Digidata 1322A). Recording pipettes (3-5 MΩ) were filled with intracellular solution containing (mM): CsCl 140, HEPES 10, Mg-ATP 4, QX-314 5, pH 7.20; osmolarity, 290-295 mOsm. BAPTA (10 mM) was added in the intracellular solution (unless otherwise specified). The coverslips were continuously superfused with extracellular solution containing (mM): NaCl 140, KCl 5.4, HEPES 10, CaCl2 1.3, glucose 20, pH 7.4; osmolarity, 305-315 mOsm. NMDA-induced currents were applied by NMDA through perfusion fast-step (Warner Instruments). With perfusion fast-step system, NMDA application was achieved by using a two-square barrel glass tubing and depending on the age of the cultured neurons, CNQX (10 μM), TTX (0.5 μM) or BIC (10 μM) were added in the extracellular solution to minimize the activation of ionotropic glutamate receptors and voltage-gated sodium channels, respectively. All experiments were performed at room temperature. Recordings from at least six HEK293 cells/neurons were performed for all active compounds. Data were pooled among HEK293 cells or primary neurons and composite dose-response data were fitted by the equation Percentage Response=100×Relative Efficacy/[1+(EC50/Concentration)nH], where EC50 is the concentration of agonist that produces a half-maximal response, relative efficacy is the response at maximally effective concentration relative to the maximal response of glutamate, and nH is the Hill slope.
GluN1/GluN2A NMDAR subtypes are an attractive target for positive allosteric modulation. The present inventors employed in silico computational drug discovery methods to conduct a virtual screen of purchasable lead-like compounds from the ZINC database (Irwin, J., et al. Abstr Pap Am Chem Soc (2005) 230:U1009) and some synthetic compounds to identify potential GluN1/GluN2A-NMDAR modulators. The in silico methods included large-scale docking against the interstice interface of the GluN1/GluN2A heterodimer and consensus scoring to select compounds for empirical testing. Candidate compounds were further screened by using GluN1/GluN2A transiently transfected in human embryonic kidney (HEK293) cells and tested by whole-cell patch clamp recordings.
The inventors used transiently transfected HEK293 cells expressing either GluN1/GluN2A or GluN1/GluN2B NMDARs and tested by whole-cell voltage patch clamp recordings to see whether selected compounds were controlling the subtype selectivity profile of the drugs.
Whole-cell patch clamp recordings were performed to measure glutamate evoked currents with chloride-based pipette solutions at a holding potential of −60 mV.

GluN1/GluN2B NMDARs = molecular target: T2, GluN1/GluN2B NMDARs (Rattus norvegicus, UniProt P35439+Q00960); assay: Whole-cell patch clamp recordings in HEK293 cells transfected with GluN1/GluN2B; format: cell-based; conditions: for activation at 50 µM: 50 μM (footnote *)
T2 construct: expressed in transfected cells; host or cells: HEK293

[1] = HEK293, Table 2, read-out: Normalized Potentiation GluN1/GluN2B

T2 sequence (Q00960 27-1482, other chains not shown): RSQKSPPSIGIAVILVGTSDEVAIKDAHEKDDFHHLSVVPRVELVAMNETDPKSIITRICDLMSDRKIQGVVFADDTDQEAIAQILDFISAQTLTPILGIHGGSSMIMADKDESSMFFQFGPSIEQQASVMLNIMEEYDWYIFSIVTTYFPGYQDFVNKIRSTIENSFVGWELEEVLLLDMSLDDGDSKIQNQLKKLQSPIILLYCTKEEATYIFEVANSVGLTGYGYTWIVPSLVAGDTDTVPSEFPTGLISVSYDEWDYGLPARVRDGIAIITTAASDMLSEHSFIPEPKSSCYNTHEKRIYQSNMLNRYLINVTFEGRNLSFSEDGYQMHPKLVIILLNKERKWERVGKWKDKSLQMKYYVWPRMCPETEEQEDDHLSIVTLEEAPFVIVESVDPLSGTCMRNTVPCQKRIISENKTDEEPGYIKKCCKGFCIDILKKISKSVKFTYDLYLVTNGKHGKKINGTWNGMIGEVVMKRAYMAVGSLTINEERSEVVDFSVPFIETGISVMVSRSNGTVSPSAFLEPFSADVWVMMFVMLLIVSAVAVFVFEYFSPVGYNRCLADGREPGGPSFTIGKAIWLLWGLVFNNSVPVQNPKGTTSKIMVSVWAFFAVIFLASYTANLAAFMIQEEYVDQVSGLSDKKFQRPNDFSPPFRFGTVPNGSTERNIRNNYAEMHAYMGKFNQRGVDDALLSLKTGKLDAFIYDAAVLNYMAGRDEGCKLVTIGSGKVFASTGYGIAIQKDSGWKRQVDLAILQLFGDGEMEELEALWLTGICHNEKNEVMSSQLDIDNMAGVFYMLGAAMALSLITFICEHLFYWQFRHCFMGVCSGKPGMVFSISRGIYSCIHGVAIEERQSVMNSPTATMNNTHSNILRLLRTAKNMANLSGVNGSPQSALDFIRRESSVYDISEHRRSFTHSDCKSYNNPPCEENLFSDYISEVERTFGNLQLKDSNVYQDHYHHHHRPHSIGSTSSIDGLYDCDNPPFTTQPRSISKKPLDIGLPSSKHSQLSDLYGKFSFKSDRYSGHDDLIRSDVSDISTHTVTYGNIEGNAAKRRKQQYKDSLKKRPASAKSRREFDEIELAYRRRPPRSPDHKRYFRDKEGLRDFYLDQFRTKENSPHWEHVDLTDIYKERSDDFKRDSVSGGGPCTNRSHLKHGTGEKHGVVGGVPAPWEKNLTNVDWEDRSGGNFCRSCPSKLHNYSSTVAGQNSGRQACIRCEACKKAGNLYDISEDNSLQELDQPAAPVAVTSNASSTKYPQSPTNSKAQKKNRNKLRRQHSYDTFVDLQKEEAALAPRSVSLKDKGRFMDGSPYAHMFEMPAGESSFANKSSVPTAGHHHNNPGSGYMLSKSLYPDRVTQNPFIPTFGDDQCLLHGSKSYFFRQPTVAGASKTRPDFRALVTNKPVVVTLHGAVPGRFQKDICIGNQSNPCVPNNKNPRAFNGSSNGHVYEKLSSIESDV
T1 sequence (Q00959 23-1464, other chains not shown): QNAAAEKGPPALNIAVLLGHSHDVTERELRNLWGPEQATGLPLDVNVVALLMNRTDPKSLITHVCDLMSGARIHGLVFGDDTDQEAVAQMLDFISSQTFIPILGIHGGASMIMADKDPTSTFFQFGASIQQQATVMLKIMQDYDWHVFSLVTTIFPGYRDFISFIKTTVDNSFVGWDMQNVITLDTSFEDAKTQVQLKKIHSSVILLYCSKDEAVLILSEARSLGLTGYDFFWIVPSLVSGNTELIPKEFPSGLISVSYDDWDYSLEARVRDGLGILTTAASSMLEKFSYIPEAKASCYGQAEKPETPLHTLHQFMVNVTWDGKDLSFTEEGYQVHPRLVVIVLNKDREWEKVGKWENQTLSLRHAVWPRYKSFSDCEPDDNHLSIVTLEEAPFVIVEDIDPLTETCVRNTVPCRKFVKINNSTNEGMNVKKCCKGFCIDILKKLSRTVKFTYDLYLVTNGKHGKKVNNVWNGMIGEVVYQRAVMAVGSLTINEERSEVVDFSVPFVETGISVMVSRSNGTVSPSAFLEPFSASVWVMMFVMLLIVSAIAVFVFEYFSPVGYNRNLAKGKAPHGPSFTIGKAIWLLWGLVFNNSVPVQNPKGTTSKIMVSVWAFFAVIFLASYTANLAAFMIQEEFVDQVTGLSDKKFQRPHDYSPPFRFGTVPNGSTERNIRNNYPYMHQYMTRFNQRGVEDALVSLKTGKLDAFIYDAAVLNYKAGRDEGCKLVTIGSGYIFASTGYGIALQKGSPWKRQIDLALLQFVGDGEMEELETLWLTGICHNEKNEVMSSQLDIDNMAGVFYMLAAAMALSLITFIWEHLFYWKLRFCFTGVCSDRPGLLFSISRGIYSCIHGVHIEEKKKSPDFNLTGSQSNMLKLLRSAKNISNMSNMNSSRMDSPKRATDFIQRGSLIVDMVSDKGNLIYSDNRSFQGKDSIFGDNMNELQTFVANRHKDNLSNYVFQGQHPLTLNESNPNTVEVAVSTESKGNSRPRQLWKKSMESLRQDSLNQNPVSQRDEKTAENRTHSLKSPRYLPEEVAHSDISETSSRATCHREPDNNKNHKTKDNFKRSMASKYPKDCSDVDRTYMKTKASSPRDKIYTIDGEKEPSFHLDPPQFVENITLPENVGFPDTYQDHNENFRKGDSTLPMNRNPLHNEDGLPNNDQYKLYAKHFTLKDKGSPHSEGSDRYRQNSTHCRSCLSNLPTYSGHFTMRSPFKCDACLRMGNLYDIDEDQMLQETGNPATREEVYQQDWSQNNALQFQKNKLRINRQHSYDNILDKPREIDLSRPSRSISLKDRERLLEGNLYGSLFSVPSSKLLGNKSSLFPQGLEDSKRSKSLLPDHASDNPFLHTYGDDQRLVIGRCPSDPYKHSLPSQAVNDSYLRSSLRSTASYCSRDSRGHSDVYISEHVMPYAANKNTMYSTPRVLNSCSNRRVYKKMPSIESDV

SMILES | Normalized Potentiation (GluN1/GluN2A NMDARs) [%] | also measured
O=C(N/N=C/c1cccc(O)c1O)c1cccc(I)c1 [Npam30, (E)-N′-(2,3-dihydroxybenzylidene)-3-iodobenzohydrazide] | 3.99 ± 4.92 | activation at 100 µM (GluN1/GluN2A NMDARs): 52.7 ± 4.87%; activation at 100 µM (GluN1/GluN2B NMDARs; [1]): -100 ± 2.83%
COc1cc(Br)c(Br)c(/C=N/NC(=O)c2cccnc2)c1O [Npam39, (E)-N′-(2,3-dibromo-6-hydroxy-5-methoxybenzylidene)nicotinohydrazide] | 51.95 ± 11.29 | –
COc1cc(/C=N/NC(=O)c2ccccc2Br)c(Br)c(Br)c1O [Npam40, (E)-2-bromo-N′-(2,3-dibromo-4-hydroxy-5-methoxybenzylidene)benzohydrazide] | 2.51 ± 3.79 | –
COc1cccc(/C=N/NC(=O)c2ccccc2C)c1O [Npam42, (E)-N′-(2-hydroxy-3-methoxybenzylidene)-2-methylbenzohydrazide] | 43.04 ± 6.55 | –
CCOc1cc(Cl)c(Cl)c(/C=N/NC(=O)c2ccc(C)cc2Cl)c1O [Npam44, (E)-2-chloro-N′-(2,3-dichloro-5-ethoxy-6-hydroxybenzylidene)-4-methylbenzohydrazide] | 443.25 ± 83.42 | EC50 (GluN1/GluN2A NMDARs): 150 nM
COc1cc(Br)c(Br)c(/C=N/NC(=O)c2ccccc2Cl)c1O [Npam45, (E)-2-chloro-N′-(2,3-dibromo-6-hydroxy-5-methoxybenzylidene)benzohydrazide] | 284.50 ± 85.20 | –
CCOc1cc(Br)cc(/C=N/NC(=O)c2ccc(C)cc2Cl)c1O [Npam46, (E)-N′-(5-bromo-3-ethoxy-2-hydroxybenzylidene)-2-chloro-4-methylbenzohydrazide] | 466.57 ± 37.78 | EC50 (GluN1/GluN2A NMDARs): 250 nM
COc1cc(Br)cc(/C=N/NC(=O)c2cccc(Br)c2)c1O [Npam47, (E)-3-bromo-N′-(5-bromo-2-hydroxy-3-methoxybenzylidene)benzohydrazide] | 224.79 ± 24.78 | –
CCOc1cc(Cl)c(Cl)c(/C=N/NC(=O)c2ccc(OC)cc2)c1O [Npam48, (E)-N′-(2,3-dichloro-5-ethoxy-6-hydroxybenzylidene)-4-methoxybenzohydrazide] | 441.05 ± 150.41 | EC50 (GluN1/GluN2A NMDARs): 100 nM
CCOc1cc(Cl)c(Cl)c(/C=N/NC(=O)c2cc(Cl)ccc2Br)c1O [Npam49, 2-bromo-5-chloro-N′-[(1E)-(2,3-dichloro-5-ethoxy-6-hydroxyphenyl)methylidene]benzohydrazide] | 530.06 ± 114.00 | EC50 (GluN1/GluN2A NMDARs): 190 nM
CCOc1cc(Cl)c(Cl)c(/C=N/NC(=O)c2cccc(Br)c2C)c1O [Npam50, 3-bromo-N′-[(1E)-(2,3-dichloro-5-ethoxy-6-hydroxyphenyl)methylidene]-2-methylbenzohydrazide] | 441.11 ± 36.50 | EC50 (GluN1/GluN2A NMDARs): 250 nM
CCOc1cc(Cl)c(Cl)c(/C=N/NC(=O)c2cccc(Br)c2C)c1OC [Npam51, 3-bromo-N′-[(1E)-(2,3-dichloro-5-ethoxy-6-methoxyphenyl)methylidene]-2-methylbenzohydrazide] | 33.37 ± 6.39 | –
CCOc1cc(Cl)c(Cl)c(/C=N/N(C)C(=O)c2ccccc2)c1O [Npam52, N′-[(1E)-(2,3-dichloro-5-ethoxy-6-hydroxyphenyl)methylidene]-N-methylbenzohydrazide] | 175.53 ± 25.9 | –
CCOc1cc(Cl)c(Cl)c(/C=N/NC(=O)c2ccccc2OC)c1O [Npam53, (E)-N′-(2,3-dichloro-5-ethoxy-6-hydroxybenzylidene)-2-methoxybenzohydrazide] | 110.23 ± 4.70 | –
CCOc1cc(Br)cc(/C=N/NC(=O)c2ccccc2Cl)c1O [Npam54, N′-[(1E)-(5-bromo-3-ethoxy-2-hydroxyphenyl)methylidene]-2-chlorobenzohydrazide] | 43.41 ± 13.48 | –
CCOc1cc(Cl)c(Cl)c(/C=N/NC(=O)c2ccccc2)c1O [Npam55, (E)-N′-(2,3-dichloro-5-ethoxy-6-hydroxybenzylidene)benzohydrazide] | 32.10 ± 3.02 | –
CCOc1cc(Cl)c(Cl)c(/C=N/NC(=O)Cc2ccccc2)c1O [Npam56, N′-[(1E)-(2,3-dichloro-5-ethoxy-6-hydroxyphenyl)methylidene]-2-phenylacetohydrazide] | 21.48 ± 2.89 | –
CCOc1cc(Cl)c(Cl)c(/C=N/NCc2ccccc2)c1O [Npam57, 2-[(1E)-(2-benzylhydrazin-1-ylidene)methyl]-3,4-dichloro-6-ethoxyphenol] | 105.85 ± 12.62 | –
CCOc1cc(Br)cc(/C=N/NC(=O)c2ccccc2Br)c1O [Npam58, (E)-2-bromo-N′-(5-bromo-3-ethoxy-2-hydroxybenzylidene)benzohydrazide] | 163.60 ± 13.94 | Selectivity for GluN1/GluN2A versus GluN1/GluN2B NMDARs (GluN1/GluN2A NMDARs; FIG. 2, HEK293 cells expressing GluN1/GluN2A and GluN1/GluN2B): selective for GluN1/GluN2A NMDARs; EC50 (GluN1/GluN2A NMDARs): 800 nM
COc1cc(Br)c(Br)c(/C=N/NC(=O)c2ccccc2)c1O [Npam59, (E)-N′-(2,3-dibromo-6-hydroxy-5-methoxybenzylidene)benzohydrazide] | 441.71 ± 65.24 | EC50 (GluN1/GluN2A NMDARs): 90 nM
O=C(N/N=C/c1cccc(O)c1O)c1cccc([N+](=O)[O-])c1 [Npam64, (E)-N′-(2,3-dihydroxybenzylidene)-3-nitrobenzohydrazide] | – | activation at 100 µM (GluN1/GluN2A NMDARs): 28.2 ± 2.47%; activation at 100 µM (GluN1/GluN2B NMDARs; [1]): -54.6 ± 5.87%
Cc1cc2ccccc2cc1C(=O)N/N=C/c1cccc(O)c1O [Npam65, (E)-N′-(2,3-dihydroxybenzylidene)-3-methyl-2-naphthohydrazide] | – | activation at 50 µM (GluN1/GluN2A NMDARs): 51.8 ± 6.55%; activation at 50 µM (GluN1/GluN2B NMDARs; [1]): -46.9 ± 8.94%
COc1cccc(/C=N/NC(=O)c2ccccc2I)c1O [Npam66, (E)-N′-(2-hydroxy-3-methoxybenzylidene)-2-iodobenzohydrazide] | – | activation at 100 µM (GluN1/GluN2A NMDARs): 45.7 ± 3.87%; activation at 25 µM (GluN1/GluN2B NMDARs; HEK293, Table 2, 25 μM, read-out: Normalized Potentiation GluN1/GluN2B): -20.9 ± 3.69%
O=C(N/N=C/c1cccc(O)c1O)c1ccc(O)cc1 [Npam68, (E)-N′-(2,3-dihydroxybenzylidene)-4-hydroxybenzohydrazide] | – | activation at 50 µM (GluN1/GluN2A NMDARs): 35.1 ± 4.85%; activation at 50 µM (GluN1/GluN2B NMDARs; [1]): -56.6 ± 7.45%
CCOc1cc(Cl)cc(/C=N/NC(=O)c2ccccc2Br)c1O [Npam80, (E)-2-bromo-N′-(5-chloro-3-ethoxy-2-hydroxybenzylidene)benzohydrazide] | 213.60 ± 29.34 | –
CCOc1cc(Br)cc(/C=N/NC(=O)c2ccccc2C)c1O [Npam82, (E)-N′-(5-bromo-3-ethoxy-2-hydroxybenzylidene)-2-methylbenzohydrazide] | 196.21 ± 35.93 | –
CC(C(O)c1ccc(O)cc1)N1CCC(Cc2ccccc2)CC1 (centres unmarked) [ifenprodril, reference compound] | – | Block of GluN1/GluN2B NMDAR currents (GluN1/GluN2B NMDARs): successfully blocked
